Data on 3 compounds can be found in patent US11000033B2, “Ketone or oxime compound, and herbicide” (NISSAN CHEMICAL CORPORATION, priority 2014, dated 2021).

Holding throughout (type): in vivo
Data set [1] concerns Echinochloa crus-galli var. crus-galli. Nature of the data set: Test Example 4: herbicidal effect by soil treatment (symbol H). The following applies: application herbicide amount 320 g/ha. Put shortly:
(§1)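 Seeds were sown in sterilized diluvial soil, covered with about 1.5 cm of soil, and the soil surface was sprayed with a water-diluted emulsion of the compound at a predetermined rate. Plants grew in a greenhouse at 25° C. to 30° C.; effects were scored visually 3 weeks after application.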

The test system of another data set is Stellaria media. Nature of the data set: Test Example 5: herbicidal effect by foliage application, plastic box (symbol P). The following applies: 320 g/ha, 3 weeks after application. Put shortly:
(§2)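 Emulsion formulation, diluted with water to the intended rate, was applied uniformly to leaves by small sprayer. Recipients were 14-day greenhouse-grown seedlings (25° C. to 30° C.). Assessment followed at 3 weeks.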

For the next data set, the system named is Scirpus juncoides. As to the kind of experiment: Test Example 2: herbicidal activity, application during weed generation in submerged conditions (symbol B). Conditions: Table 23; application herbicide amount 320 g/ha; grade 0-5 by criteria of Test Example 1. An outline of the steps:
(§3)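 Weeds emerging under flooded conditions were treated with compound formulated as an emulsion and diluted with water to the intended herbicide amount, poured onto the surface of 4 cm standing water. Seeds had been co-sown in alluvial soil; plants grew at 25° C. to 30° C. and were assessed after 3 weeks.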

For data set [2], the system named is Amaranthus retroflexus. Nature of the data set: Test Example 5: herbicidal effect by foliage application, plastic box (symbol N). Conditions: 320 g/ha, 3 weeks after application. Put shortly:
as §2

The test system of data set [3] is Digitaria ciliaris. Nature of the data set: Test Example 4: herbicidal effect by soil treatment (symbol F). The following applies: application herbicide amount 320 g/ha. An outline of the steps: as §1
The next data set relates to Chenopodium album. As to the kind of experiment: Test Example 5: herbicidal effect by foliage application, plastic box (symbol O). The following applies: 320 g/ha, 3 weeks after application. Put shortly: as §2
Another data set has as its system rice plant. As to the kind of experiment: Test Example 5: effect on crop by foliage application, plastic box (symbol b). The following applies: 320 g/ha, 3 weeks after application. An outline of the steps: (§4)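 Crop seed is sown alongside grass and broadleaf weed species in spots in sterilized diluvial soil, then covered to a depth of about 1.5 cm. Plants grow in a greenhouse kept at 25° C. to 30° C.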

Data set [4] has as its system Echinochloa crus-galli var. crus-galli. As to the kind of experiment: Test Example 3: herbicidal effect by foliage application, Wagner pot (symbol H). The following applies: application herbicide amount 320 g/ha. An outline of the steps: (§5)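 Alluvial soil was flooded to a depth of 0.1–0.5 cm, seeded with the weeds and rice, and kept in a greenhouse at 25–30 °C. After 14 days of growth, the foliage received a small-sprayer application of emulsion diluted to the intended rate; injury was rated at 3 weeks.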

Another data set deals with rapeseed. As to the kind of experiment: Test Example 4: effect on crop by soil treatment (symbol g). Conditions: application herbicide amount 320 g/ha. Put shortly:
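Soil-treatment setup: crop and weed seeds were spot-sown into sterilized diluvial soil, then buried beneath approximately 1.5 cm of it, and the boxes were housed in a 25–30° C. greenhouse.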

The next data set has as its system Apera spica-venti. As to the kind of experiment: Test Example 4: herbicidal effect by soil treatment (symbol L). Conditions: application herbicide amount 320 g/ha. Put shortly: as §1
A further data set relates to Leptochloa chinensis. As to the kind of experiment: Test Example 3: herbicidal effect by foliage application, Wagner pot (symbol D). Conditions: application herbicide amount 320 g/ha. Put shortly: as §5
The subject of the next data set is Abutilon theophrasti. Nature of the data set: Test Example 4: herbicidal effect by soil treatment (symbol M). Conditions: application herbicide amount 320 g/ha. An outline of the steps: as §1
The subject of the next data set is beet. Nature of the data set: Test Example 5: effect on crop by foliage application, plastic box (symbol f). The following applies: 320 g/ha, 3 weeks after application. Put shortly: as §4
Data set [5] has as its system Digitaria ciliaris. As to the kind of experiment: Test Example 5: herbicidal effect by foliage application, plastic box (symbol F). Conditions: 320 g/ha, 3 weeks after application. An outline of the steps:
as §2

Data set [6] has as its system Amaranthus retroflexus. Nature of the data set: Test Example 4: herbicidal effect by soil treatment (symbol N). Conditions: application herbicide amount 320 g/ha. An outline of the steps: as §1
Data set [7] relates to Echinochloa oryzacola Vasing. Nature of the data set: Test Example 2: herbicidal activity, application during weed generation in submerged conditions (symbol A). The following applies: Table 23; application herbicide amount 320 g/ha; grade 0-5 by criteria of Test Example 1. An outline of the steps: as §3
A further data set concerns wheat. As to the kind of experiment: Test Example 5: effect on crop by foliage application, plastic box (symbol e). Conditions: 320 g/ha, 3 weeks after application. Put shortly:
as §4

The next data set deals with Lolium multiflorum Lam. As to the kind of experiment: Test Example 4: herbicidal effect by soil treatment (symbol K). The following applies: application herbicide amount 320 g/ha. Put shortly:
as §1

The subject of the next data set is Avena fatua. Nature of the data set: Test Example 5: herbicidal effect by foliage application, plastic box (symbol I). The following applies: 320 g/ha, 3 weeks after application. An outline of the steps:
as §2

With `CCc1cc(C#C[Si](C)(C)C)cc(C)c1C1=C(O)CC(CC(C)=NOC)C1=O` (mixture of isomers) [6-008], the “H: Echinochloa crus-galli var. crus-galli, herbicidal effect grade” value in data set [1] is given as 5 (Herbicidal ratio of 90% or more (almost completely withered)). The “P: Stellaria media, herbicidal effect grade” value in the data set on Stellaria media is given as 0 (Herbicidal ratio of 5% or lower (almost no effect)). Besides, the “Herbicidal effect grade, B: Scirpus juncoides” value (shortened to “Herbicidal effect grade, B”) in the data set on Scirpus juncoides was 5 (Herbicidal ratio of 90% or more (almost completely withered)). For the same compound, the “N: Amaranthus retroflexus, herbicidal effect grade” value (from here on “N: Amaranthus retroflexus”) in the data set with Amaranthus retroflexus [2] and with Amaranthus retroflexus [6] was 0 (Herbicidal ratio of 5% or lower (almost no effect)) throughout. Besides, the “F: Digitaria ciliaris, herbicidal effect grade” value (“F: Digitaria ciliaris” below) with Digitaria ciliaris [3] was 5 (Herbicidal ratio of 90% or more (almost completely withered)); with Digitaria ciliaris [5], 0 (Herbicidal ratio of 5% or lower (almost no effect)). For the same compound, the “O: Chenopodium album, herbicidal effect grade” value (shortened to “O: Chenopodium album”) with Chenopodium album is 0 (Herbicidal ratio of 5% or lower (almost no effect)). The “b: directly sowed rice plant, effect on crop grade” value (“b: directly sowed rice plant” below) in the data set with rice plant is 3 (Herbicidal ratio of 40% or higher and lower than 70%). Also, the “herbicidal effect on H (Echinochloa crus-galli var. crus-galli), grade 0-5” value (“herbicidal effect on H” below) in data set [4] is listed as 5 (Herbicidal ratio of 90% or more (almost completely withered)). In addition, the “g: rapeseed, effect on crop grade” value in the data set on rapeseed was 0 (Herbicidal ratio of 5% or lower (almost no effect)). In addition, the “L: Apera spica-venti, herbicidal effect grade” value (from here on “L: Apera spica-venti”) with Apera spica-venti is on record as 5 (Herbicidal ratio of 90% or more (almost completely withered)). For the same compound, in the data set on Leptochloa chinensis, the “herbicidal effect on D (Leptochloa chinensis), grade 0-5” value (shortened to “herbicidal effect on D”) is 5 (Herbicidal ratio of 90% or more (almost completely withered)). Besides, the “M: Abutilon theophrasti, herbicidal effect grade” value (“M: Abutilon theophrasti” below) in the data set with Abutilon theophrasti was 0 (Herbicidal ratio of 5% or lower (almost no effect)). The “f: beet, effect on crop grade” value in the data set on beet is 0 (Herbicidal ratio of 5% or lower (almost no effect)). For the same compound, the “Herbicidal effect grade, A: Echinochloa oryzacola Vasing.” value in [7] was 5 (Herbicidal ratio of 90% or more (almost completely withered)). In addition, in the data set with wheat, the “e: wheat, effect on crop grade” value is 4 (Herbicidal ratio of 70% or higher and lower than 90%). In addition, the “K: Lolium multiflorum Lam., herbicidal effect grade” value with Lolium multiflorum Lam. is reported as 5 (Herbicidal ratio of 90% or more (almost completely withered)). Moreover, the “I: Avena fatua, herbicidal effect grade” value with Avena fatua is 0 (Herbicidal ratio of 5% or lower (almost no effect)).
On to `CC#Cc1cc(C)c(C2=C(O)CC(CC(C)=NOC)C2=O)c(C)c1` (mixture of isomers) [6-009], for which, in [1], the “H: Echinochloa crus-galli var. crus-galli, herbicidal effect grade” value is given as 5 (Herbicidal ratio of 90% or more (almost completely withered)). In addition, the “Herbicidal effect grade, B” value in the data set with Scirpus juncoides is reported as 0 (Herbicidal ratio of 5% or lower (almost no effect)). Moreover, the “N: Amaranthus retroflexus” value with Amaranthus retroflexus [2] is 0 (Herbicidal ratio of 5% or lower (almost no effect)); with Amaranthus retroflexus [6] it was 5 (Herbicidal ratio of 90% or more (almost completely withered)). Besides, the “F: Digitaria ciliaris” value with Digitaria ciliaris [3] and in the data set on Digitaria ciliaris [5] was 5 (Herbicidal ratio of 90% or more (almost completely withered)) in each case. In addition, the “O: Chenopodium album” value with Chenopodium album was 2 (Herbicidal ratio of 20% or higher and lower than 40%). In the data set with rice plant, the “b: directly sowed rice plant” value was 5 (Herbicidal ratio of 90% or more (almost completely withered)). The “herbicidal effect on H” value in data set [4] is 5 (Herbicidal ratio of 90% or more (almost completely withered)). Besides, the “g: rapeseed, effect on crop grade” value in the data set on rapeseed is 4 (Herbicidal ratio of 70% or higher and lower than 90%). Besides, the “L: Apera spica-venti” value with Apera spica-venti is 5 (Herbicidal ratio of 90% or more (almost completely withered)). Moreover, the “herbicidal effect on D” value in the data set on Leptochloa chinensis is given as 5 (Herbicidal ratio of 90% or more (almost completely withered)). The “M: Abutilon theophrasti” value in the data set with Abutilon theophrasti is recorded as 5 (Herbicidal ratio of 90% or more (almost completely withered)). Further, the “f: beet, effect on crop grade” value in the data set on beet is 2 (Herbicidal ratio of 20% or higher and lower than 40%). For the same compound, the “Herbicidal effect grade, A: Echinochloa oryzacola Vasing.” value in data set [7] was 3 (Herbicidal ratio of 40% or higher and lower than 70%). The “e: wheat, effect on crop grade” value in the data set on wheat is listed as 5 (Herbicidal ratio of 90% or more (almost completely withered)). Besides, the “K: Lolium multiflorum Lam., herbicidal effect grade” value with Lolium multiflorum Lam. was 5 (Herbicidal ratio of 90% or more (almost completely withered)). The “I: Avena fatua, herbicidal effect grade” value in the data set with Avena fatua was 4 (Herbicidal ratio of 70% or higher and lower than 90%).
As to `CON=C(C)CC1CC(O)=C(c2c(C)cc(C#CC3CC3)cc2C)C1=O` (mixture of isomers) [6-010], in data set [1], the “H: Echinochloa crus-galli var. crus-galli, herbicidal effect grade” value is recorded as 5 (Herbicidal ratio of 90% or more (almost completely withered)). Moreover, the “P: Stellaria media, herbicidal effect grade” value with Stellaria media is recorded as 0 (Herbicidal ratio of 5% or lower (almost no effect)). Further, the “Herbicidal effect grade, B” value in the data set on Scirpus juncoides was 3 (Herbicidal ratio of 40% or higher and lower than 70%). Also, the “N: Amaranthus retroflexus” value was 0 (Herbicidal ratio of 5% or lower (almost no effect)) in the data set with Amaranthus retroflexus [2]; 1 (Herbicidal ratio of 5% or higher and lower than 20%) in the data set on Amaranthus retroflexus [6]. Further, the “F: Digitaria ciliaris” value with Digitaria ciliaris [3] and in the data set on Digitaria ciliaris [5] was 5 (Herbicidal ratio of 90% or more (almost completely withered)) each time. In the data set on Chenopodium album, the “O: Chenopodium album” value is 3 (Herbicidal ratio of 40% or higher and lower than 70%). Besides, the “b: directly sowed rice plant” value in the data set with rice plant is recorded as 5 (Herbicidal ratio of 90% or more (almost completely withered)). Moreover, the “herbicidal effect on H” value in data set [4] is on record as 5 (Herbicidal ratio of 90% or more (almost completely withered)). The “g: rapeseed, effect on crop grade” value in the data set with rapeseed is on record as 0 (Herbicidal ratio of 5% or lower (almost no effect)). Besides, the “L: Apera spica-venti” value with Apera spica-venti was 5 (Herbicidal ratio of 90% or more (almost completely withered)). Also, the “herbicidal effect on D” value in the data set on Leptochloa chinensis is listed as 5 (Herbicidal ratio of 90% or more (almost completely withered)). Also, the “M: Abutilon theophrasti” value in the data set with Abutilon theophrasti was 3 (Herbicidal ratio of 40% or higher and lower than 70%). Further, the “f: beet, effect on crop grade” value with beet is recorded as 0 (Herbicidal ratio of 5% or lower (almost no effect)). In addition, the “Herbicidal effect grade, A: Echinochloa oryzacola Vasing.” value in data set [7] is on record as 5 (Herbicidal ratio of 90% or more (almost completely withered)). The “e: wheat, effect on crop grade” value in the data set on wheat was 4 (Herbicidal ratio of 70% or higher and lower than 90%). Moreover, in the data set with Lolium multiflorum Lam., the “K: Lolium multiflorum Lam., herbicidal effect grade” value is listed as 5 (Herbicidal ratio of 90% or more (almost completely withered)). For the same compound, the “I: Avena fatua, herbicidal effect grade” value in the data set with Avena fatua is 3 (Herbicidal ratio of 40% or higher and lower than 70%).
